Data: patent publication US12590066B2, “Fused-heterocyclyl-carbonohydrazonoyl dicyanide compounds and use thereof” (KOREA INSTITUTE OF SCIENCE AND TECHNOLOGY, priority 2020, dated 2026)
pIC50: −log10 of the molar value.

How the values were obtained:
tau protein = molecular target: T1, tau protein (Homo sapiens, UniProt P10636); test: Tau-BiFC cell model, inhibition of Forskolin-induced tau protein aggregation; type: cell-based; details: Forskolin 30 μM, 48 hours; for Tau BiFC in cells Response (% @10 μM): 10 μM compound, Forskolin-only group = 100% tau protein-aggregated state; for pIC50: tau-BiFC cells
T1 construct: BiFC fluorescent-protein fragments (type and halves not specified); expressed in transfected cells
Description: In order to select novel tau protein aggregation-inhibiting substances, tau-BiFC cell model, in which formation of tau oligomers in living cells is easily observed, was used. Tau-BiFC cells were aliquoted into a 384-well plate. On the next day, the cells were treated with each of the compounds prepared according to Examples 1 to 57 at concentrations of 1 μM, 3 μM, and 10 μM, together with Forskolin (at a treatment concentration of 30 μM), which is a compound inducing tau protein aggregation by activating tau phosphorylase PKA. After 48 hours, nuclei in the cells were stained using Hoechst (at a treatment concentration of 2 μg/mL), and BiFC fluorescence intensity was automatically measured using Operetta (PerkinElmer) to count stained nuclei in each well out of the entire well plate. The group treated only with Forskolin, which induces tau protein aggregation, was set to a reference point of a 100% tau protein-aggregated state, and the effects of the compounds were confirmed using the equation “BiFC fluorescence intensity due to compound synthesized according to embodiment of present invention/(fluorescence intensity of control group treated only with Forskolin inducing tau protein aggregation−fluorescence intensity of untreated control group)×100”. Furthermore, the degree of cytotoxicity induced by the newly synthesized compound was also measured based on the 100% cell viability of the group treated only with Forskolin as a reference, and the cytotoxicity value of each compound was calculated using the equation “(number of stained nuclei in group treated with compound/number of stained nuclei in group treated with Forskolin)×100”. Based on the treatment results, substances inhibiting intracellular tau protein aggregation were selected from a series of candidate groups showing a tau protein aggregation inhibition rate of 70% or more and cell viability of 100% at a compound treatment concentration of 10 μM or more.
In order to evaluate dose-dependent tau protein aggregation inhibition effects of the compounds selected according to Experimental Example 1 on tau protein aggregation, tau-BiFC cells were treated with the selected compounds at concentrations of 0.03 μM, […], 0.3 μM, 1 μM, 3 μM, 10 μM, and 30 μM, respectively, together with Forskolin (at a treatment concentration of 30 μM), which is a tau protein aggregation-inducing substance. After 48 hours, tau protein aggregation reaction and degrees of cytotoxicity were analyzed by observing images of the cells. IC50 and toxicity of the compounds were analyzed by way of nonlinear regression analysis of prism software (Graph Pad).

Tau-BiFC cells = test: Cell viability (stained nuclei count) in Tau-BiFC cells; type: cell-based; details: 10 μM compound, 48 hours; Forskolin-only group = 100% cell viability
Description: In order to select novel tau protein aggregation-inhibiting substances, tau-BiFC cell model, in which formation of tau oligomers in living cells is easily observed, was used. Tau-BiFC cells were aliquoted into a 384-well plate. On the next day, the cells were treated with each of the compounds prepared according to Examples 1 to 57 at concentrations of 1 μM, 3 μM, and 10 μM, together with Forskolin (at a treatment concentration of 30 μM), which is a compound inducing tau protein aggregation by activating tau phosphorylase PKA. After 48 hours, nuclei in the cells were stained using Hoechst (at a treatment concentration of 2 μg/mL), and BiFC fluorescence intensity was automatically measured using Operetta (PerkinElmer) to count stained nuclei in each well out of the entire well plate. The group treated only with Forskolin, which induces tau protein aggregation, was set to a reference point of a 100% tau protein-aggregated state, and the effects of the compounds were confirmed using the equation “BiFC fluorescence intensity due to compound synthesized according to embodiment of present invention/(fluorescence intensity of control group treated only with Forskolin inducing tau protein aggregation−fluorescence intensity of untreated control group)×100”. Furthermore, the degree of cytotoxicity induced by the newly synthesized compound was also measured based on the 100% cell viability of the group treated only with Forskolin as a reference, and the cytotoxicity value of each compound was calculated using the equation “(number of stained nuclei in group treated with compound/number of stained nuclei in group treated with Forskolin)×100”. Based on the treatment results, substances inhibiting intracellular tau protein aggregation were selected from a series of candidate groups showing a tau protein aggregation inhibition rate of 70% or more and cell viability of 100% at a compound treatment concentration of 10 μM or more. […]

T1 sequence (P10636 1-441 isoform P10636-8): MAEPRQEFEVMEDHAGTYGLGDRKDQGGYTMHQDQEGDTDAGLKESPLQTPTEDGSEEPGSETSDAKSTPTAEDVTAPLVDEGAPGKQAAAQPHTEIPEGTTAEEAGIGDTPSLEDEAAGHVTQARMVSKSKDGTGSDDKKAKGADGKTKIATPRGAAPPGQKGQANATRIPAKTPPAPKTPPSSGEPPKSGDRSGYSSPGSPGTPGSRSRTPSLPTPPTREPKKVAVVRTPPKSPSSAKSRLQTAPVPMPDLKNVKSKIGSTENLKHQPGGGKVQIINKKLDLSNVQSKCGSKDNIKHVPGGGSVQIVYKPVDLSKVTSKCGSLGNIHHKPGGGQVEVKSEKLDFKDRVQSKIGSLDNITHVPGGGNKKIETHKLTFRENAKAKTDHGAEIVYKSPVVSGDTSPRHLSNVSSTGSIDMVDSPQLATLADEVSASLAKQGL

## Cn1c(=O)n(C2CC2)c2ncc(NN=C(C#N)C#N)cc21 [Compound 51, (3-cyclopropyl-1-methyl-2-oxo-2,3-dihydro-1H-imidazo[4,5-b]pyridin-6-yl)carbonohydrazonoyl dicyanide]
Tau protein
  Tau BiFC in cells Response (% @10 μM): −11%
  pIC50: 6.18
Tau-BiFC cells
  Cell viability (% @10 μM): 137%

## Cc1cc2c(cc1NN=C(C#N)C#N)n(C)c(=O)n2C [Compound 31, (1,3,6-trimethyl-2-oxo-2,3-dihydro-1H-benzo[d]imidazol-5-yl)carbonohydrazonoyl dicyanide]
Tau protein
  Tau BiFC in cells Response (% @10 μM): 47%
Tau-BiFC cells
  Cell viability (% @10 μM): 119%

## Cn1c(=O)n(C)c2cc(NN=C(C#N)C#N)c(F)cc21 [Compound 9, (6-fluoro-1,3-dimethyl-2-oxo-2,3-dihydro-1H-benzo[d]imidazol-5-yl)carbonohydrazonoyl dicyanide]
Tau protein
  Tau BiFC in cells Response (% @10 μM): 0%
  pIC50: 6.77
Tau-BiFC cells
  Cell viability (% @10 μM): 155.3%

## CCn1c(=O)n(C)c2ncc(NN=C(C#N)C#N)cc21 [Compound 44, (1-ethyl-3-methyl-2-oxo-2,3-dihydro-1H-imidazo[4,5-b]pyridin-6-yl)carbonohydrazonoyl dicyanide]
Tau protein
  Tau BiFC in cells Response (% @10 μM): 10%
Tau-BiFC cells
  Cell viability (% @10 μM): 138%

## CCn1c(=O)n(C(F)F)c2cc(NN=C(C#N)C#N)ccc21 [Compound 39, (3-(difluoromethyl)-1-ethyl-2-oxo-2,3-dihydro-1H-benzo[d]imidazol-5-yl)carbonohydrazonoyl dicyanide]
Tau protein
  Tau BiFC in cells Response (% @10 μM): −45%
  pIC50: 8.00
Tau-BiFC cells
  Cell viability (% @10 μM): 106%

## N#CC(C#N)=NNc1ccc2cc[nH]c(=O)c2c1 [Compound 1, (1-oxo-1,2-dihydroisoquinolin-7-yl)carbonohydrazonoyl dicyanide]
Tau protein
  Tau BiFC in cells Response (% @10 μM): 0%
  pIC50: 6.89
Tau-BiFC cells
  Cell viability (% @10 μM): 152.9%

## Cn1c(=O)n(C2CC2)c2ccc(NN=C(C#N)C#N)cc21 [Compound 40, (1-cyclopropyl-3-methyl-2-oxo-2,3-dihydro-1H-benzo[d]imidazol-5-yl)carbonohydrazonoyl dicyanide]
Tau protein
  Tau BiFC in cells Response (% @10 μM): −38%
  pIC50: 7.52
Tau-BiFC cells
  Cell viability (% @10 μM): 122%

## N#CC(C#N)=NNc1ccc2oc(=O)n(C(F)F)c2c1 [Compound 30, (3-(difluoromethyl)-2-oxo-2,3-dihydrobenzo[d]oxazol-5-yl)carbonohydrazonoyl dicyanide]
Tau protein
  Tau BiFC in cells Response (% @10 μM): 36%
Tau-BiFC cells
  Cell viability (% @10 μM): 127%

## CC(C)n1c(=O)n(C)c2cc(NN=C(C#N)C#N)cnc21 [Compound 54, (3-isopropyl-1-methyl-2-oxo-2,3-dihydro-1H-imidazo[4,5-b]pyridin-6-yl)carbonohydrazonoyl dicyanide]
Tau protein
  Tau BiFC in cells Response (% @10 μM): −38%
  pIC50: 6.52
Tau-BiFC cells
  Cell viability (% @10 μM): 118%

## CCn1c(=O)n(C(F)F)c2cc(NN=C(C#N)C#N)cnc21 [Compound 50, (1-(difluoromethyl)-3-ethyl-2-oxo-2,3-dihydro-1H-imidazo[4,5-b]pyridin-6-yl)carbonohydrazonoyl dicyanide]
Tau protein
  Tau BiFC in cells Response (% @10 μM): 2%
Tau-BiFC cells
  Cell viability (% @10 μM): 119%

## Cn1c(=O)ccc2cc(NN=C(C#N)C#N)ccc21 [Compound 25, (1-methyl-2-oxo-1,2-dihydroquinolin-6-yl)carbonohydrazonoyl dicyanide]
Tau protein
  Tau BiFC in cells Response (% @10 μM): −16%
  pIC50: 7.70
Tau-BiFC cells
  Cell viability (% @10 μM): 118%

## CC(C)n1c(=O)n(C)c2ncc(NN=C(C#N)C#N)cc21 [Compound 45, (1-isopropyl-3-methyl-2-oxo-2,3-dihydro-1H-imidazo[4,5-b]pyridin-6-yl)carbonohydrazonoyl dicyanide]
Tau protein
  Tau BiFC in cells Response (% @10 μM): −24%
  pIC50: 6.70
Tau-BiFC cells
  Cell viability (% @10 μM): 113%

## COc1cc2c(cc1NN=C(C#N)C#N)n(C)c(=O)n2C [Compound 32, (6-methoxy-1,3-dimethyl-2-oxo-2,3-dihydro-1H-benzo[d]imidazol-5-yl)carbonohydrazonoyl dicyanide]
Tau protein
  Tau BiFC in cells Response (% @10 μM): 38%
Tau-BiFC cells
  Cell viability (% @10 μM): 132%

## CCn1c(=O)n(C2CC2)c2ncc(NN=C(C#N)C#N)cc21 [Compound 52, (3-cyclopropyl-1-ethyl-2-oxo-2,3-dihydro-1H-imidazo[4,5-b]pyridin-6-yl)carbonohydrazonoyl dicyanide]
Tau protein
  Tau BiFC in cells Response (% @10 μM): −30%
  pIC50: 6.70
Tau-BiFC cells
  Cell viability (% @10 μM): 133%

## Cc1cc(=O)[nH]c2ccc(NN=C(C#N)C#N)cc12 [Compound 26, (4-methyl-2-oxo-1,2-dihydroquinolin-6-yl)carbonohydrazonoyl dicyanide]
Tau protein
  Tau BiFC in cells Response (% @10 μM): −5%
  pIC50: 6.11
Tau-BiFC cells
  Cell viability (% @10 μM): 120%

## CCn1c(=O)n(C(C)C)c2cc(NN=C(C#N)C#N)cnc21 [Compound 49, (3-ethyl-1-isopropyl-2-oxo-2,3-dihydro-1H-imidazo[4,5-b]pyridin-6-yl)carbonohydrazonoyl dicyanide]
Tau protein
  Tau BiFC in cells Response (% @10 μM): −34%
  pIC50: 7.30
Tau-BiFC cells
  Cell viability (% @10 μM): 139%

## Cn1c(=O)n(-c2ccccc2)c2cc(NN=C(C#N)C#N)cnc21 [Compound 47, (3-methyl-2-oxo-1-phenyl-2,3-dihydro-1H-imidazo[4,5-b]pyridin-6-yl)carbonohydrazonoyl dicyanide]
Tau protein
  Tau BiFC in cells Response (% @10 μM): 13%
Tau-BiFC cells
  Cell viability (% @10 μM): 117%

## Cn1c(=O)n(C(F)F)c2cc(NN=C(C#N)C#N)cnc21 [Compound 46, (1-(difluoromethyl)-3-methyl-2-oxo-2,3-dihydro-1H-imidazo[4,5-b]pyridin-6-yl)carbonohydrazonoyl dicyanide]
Tau protein
  Tau BiFC in cells Response (% @10 μM): 23%
Tau-BiFC cells
  Cell viability (% @10 μM): 131%

## N#CC(C#N)=NNc1ccc2[nH]c(=O)ccc2c1 [Compound 8, (2-oxo-1,2-dihydroquinolin-6-yl)carbonohydrazonoyl dicyanide]
Tau protein
  Tau BiFC in cells Response (% @10 μM): 0%
  pIC50: 6.37
Tau-BiFC cells
  Cell viability (% @10 μM): 152.5%

## Cn1c(=O)oc2ccc(NN=C(C#N)C#N)cc21 [Compound 28, (3-methyl-2-oxo-2,3-dihydrobenzo[d]oxazol-5-yl)carbonohydrazonoyl dicyanide]
Tau protein
  Tau BiFC in cells Response (% @10 μM): 13%
Tau-BiFC cells
  Cell viability (% @10 μM): 134%

## CCn1c(=O)n(C2CC2)c2ccc(NN=C(C#N)C#N)cc21 [Compound 41, (1-cyclopropyl-3-ethyl-2-oxo-2,3-dihydro-1H-benzo[d]imidazol-5-yl)carbonohydrazonoyl dicyanide]
Tau protein
  Tau BiFC in cells Response (% @10 μM): −54%
  pIC50: 7.70
Tau-BiFC cells
  Cell viability (% @10 μM): 112%
